Test results reported in patent US12036193B2, “Synergistic bioactive compositions for treating neurological disorders” (priority 2019, dated 2024).

Experiments:
[1] = Rat feed consumption in global ischemia reperfusion induced brain injury study; conditions: Standard 9.3 mg/kg, Agmatine sulphate 310 mg/kg, Bio-optimized PEA 372 mg/kg, combination 310+372 mg/kg, p.o. daily
[2] = system: TNF alpha; experiment: Rat TNF alpha level after global cerebral ischemia/reperfusion; format: in vivo, Wistar rats; conditions: mean ± SEM, n=6; oral 10 days, 30 min ischemia on 7th day + 72 hrs reperfusion; Standard 9.3, Agmatine sulphate 310, Bio-optimized PEA 372, combination 310+372 mg/kg; I/R control 172.17 ± 6.35
[3] = Rat body weight in global ischemia reperfusion induced brain injury study; conditions: n=6, Standard 9.3 mg/kg, Agmatine sulphate 310 mg/kg, Bio-optimized PEA 372 mg/kg, combination 310+372 mg/kg, p.o. daily
[4] = system: Interleukin - 6; experiment: Rat Interleukin-6 level after global cerebral ischemia/reperfusion; format: in vivo, Wistar rats; conditions: mean ± SEM, n=6; oral 10 days, 30 min ischemia on 7th day + 72 hrs reperfusion; Standard 9.3, Agmatine sulphate 310, Bio-optimized PEA 372, combination 310+372 mg/kg; I/R control 121.83 ± 1.65

N=C(N)NCCCCN.O=S(=O)(O)O [Agmatine sulphate, 1-(4-Aminobutyl)guanidine sulfate]
Feed Consumption, Week 01 [1]: 99.57 ± 1.19 gm
TNF alpha Level [2]: 142.00 ± 1.53 pg/mL
Body Weight, Week 01 ([3]; Week 01, mean ± SEM): 224.33 ± 0.42 gm
Body Weight, Basal ([3]; basal, mean ± SEM): 215.00 ± 0.73 gm
Interleukin - 6 Levels [4]: 91.39 ± 0.92 pg/mL
